Assay results reported in PMC6695355, “Alanine Scanning Studies of the Antimicrobial Peptide Aurein 1.2” (Probiotics and Antimicrobial Proteins, 2018).
In brackets after ≈: the same amount, converted by molar mass. Where a SMILES comes first, the peptide text is derived from it.

Assays:
[1] = test system: human red blood cells (RBCs); assay: Hemolysis assay; type: cell-based; conditions: red cells of human, 1 h
Experimental: The hemolytic activity of the peptides was determined using fresh human red blood cells (RBCs) collected from a healthy human donor according to the procedure described in the literature. Fresh RBCs with EDTA as anticoagulant were rinsed three times with a PBS by centrifugation at 800×g for 10 min and resuspension in PBS. Serial dilution of the peptides in PBS (1–256 μg/mL) on 96-well polystyrene plates was prepared and the stock solution of RBCs was added up to a final volume of 100 μL with a 4% concentration of erythrocytes (v/v). The control wells for 0 and 100% hemolysis contained of RBCs suspended in PBS and 1% of Triton-X 100, respectively. Subsequently, the plates were incubated for 1 h at 37 °C and then centrifuged at 800×g for 10 min at 4 °C (Sorvall ST 16R Centrifuge, Thermo Scientific). After centrifugation, the supernatant was carefully […] to new microtiter plates and the release of hemoglobin was measured at 540 nm (Multiskan™ GO Microplate Spectrophotometer, Thermo Scientific). All experiments were conducted in triplicate.

[2] = test system: S. aureus ATCC 25923 biofilm; type: cell-based, Staphylococcus aureus; conditions: ATCC 25923, 24 h
Experimental: (§1) The minimum inhibitory concentrations (MICs) of test compounds were assessed by broth microdilution method on 96-well plates, according to the guidelines of Clinical and Laboratory Standards Institute (CLSI). For this purpose, reference strains of bacteria: S. aureus ATCC 25923, E. faecalis PCM 2673, E. coli ATCC 25922, and P. aeruginosa ATCC 9027; and fungus: C. albicans ATCC 10231 were used (The Polish Collection of Microorganism, Polish Academy of Sciences, Wrocław, Poland). Bacteria at initial inoculums of 0.5 × 10^5 CFU/mL in Mueller Hinton Broth (MHB), and fungi at initial inoculums of 2 × 10^3 CFU/mL in RPMI-1640, were exposed to the compounds over the concentration range of 1–512 μg/mL. The polystyrene plates were incubated at 37 °C for 18 h with bacteria and for 24 h with C. albicans. The MIC was taken as the lowest concentration at which a noticeable growth of microorganisms was inhibited. Minimum biofilm eradication concentrations (MBECs) were determined using a previously described protocol. For this purpose, 96-well polystyrene flat-bottom plates and a resazurin (7-hydroxy-3H-phenoxazin-3-one 10-oxide) were used. In this assay, a specific feature of resazurin is utilized, which upon the contact with living cells is metabolized and reduced from the basic blue form to pink resorufin. Briefly, 24-h cultures of microorganisms were diluted 1,000-fold and 100 μL of that suspension was added into the test plates. After 24 h of incubation at 37 °C, the wells of the plates were rinsed three times with phosphate buffer saline (PBS) to remove non-adherent cells. Subsequently, 100 μL of test compounds in concentration range (diluted in appropriate media) were added to each well. After 24 h of incubation at 37 °C, 20 μL of the resazurin (4 mg/mL) was added. The MBEC was read after 1 h. Additionally, anti-adhesive properties of the compounds were also analyzed. The assay was conducted on 96-well polystyrene flat-bottom plates. The preparation of inoculums was followed by a 500-fold dilution of 24-h cultures of microorganisms. Briefly, to evaluate the effect of the peptides in preventing biofilm formation, 50 μL of compounds in concentration range, diluted in appropriate medium, were prepared. Subsequently, the 50 μL of the bacterial/fungal inoculums were added to reach the same microbial density as that in MBEC assay. After 24 h of incubation at 37 °C, the wells were rinsed three times with PBS and the fresh media with resazurin (0.6 mg/mL) were added. Then, after 1 h of incubation, the minimum biofilm inhibitory concentrations (MBIC) were read. MBECs as well as MBICs were determined as the lowest concentration at which the reduction of resazurin was lower or equal (10% ± 0.5%) as compared to positive (100%) and negative (0%) controls. All experiments were performed in triplicate.

[3] = test system: S. aureus ATCC 25923; type: cell-based, Staphylococcus aureus; conditions: ATCC 25923, 18 h
Experimental: as §1

[4] = test system: S. aureus ATCC 25923 biofilm formation; type: cell-based, Staphylococcus aureus; conditions: ATCC 25923, 24 h
Experimental: as §1

[5] = test system: E. faecalis PCM 2673 biofilm; type: cell-based, Enterococcus faecalis; conditions: 24 h
Experimental: as §1

[6] = test system: E. faecalis PCM 2673 biofilm formation; type: cell-based, Enterococcus faecalis; conditions: 24 h
Experimental: as §1

[7] = test system: E. faecalis PCM 2673; type: cell-based, Enterococcus faecalis; conditions: PCM 2673, 18 h
Experimental: as §1

[8] = test system: C. albicans ATCC 10231; type: cell-based, Candida albicans; conditions: ATCC 10231, 24 h
Experimental: as §1

[9] = test system: C. albicans ATCC 10231 biofilm; type: cell-based, Candida albicans; conditions: ATCC 10231, 24 h
Experimental: as §1

[10] = test system: C. albicans ATCC 10231 biofilm formation; type: cell-based, Candida albicans; conditions: ATCC 10231, 24 h
Experimental: as §1

[11] = in vitro; type: in vitro ADME; conditions: bovine, serum
Experimental: To assess serum stability, the peptides (0.5 mg) were dissolved in 4 mL of 25% (v/v) fetal bovine serum (FBS) in PBS and incubated at 37 °C. The aliquots of 100 μL of the test samples were transferred to 96-well polystyrene plates in triplicate for each time point. Samples were quenched at zero time (t0) and after 6 h of incubation at 37 °C by addition of 100 μL of ice-cold acetonitrile and stored at 4 °C for 10 min. Afterwards, the samples were centrifuged at 13,000×g for 20 min at 4 °C and diluted 1:1 with HPLC-grade water. All samples were analyzed using the Waters Alliance e2695 system with Waters Acquity QDa Detector (software–Empower®3). Analyses were conducted on an Agilent Zorbax SB-C18 RP-18 column (4.6 × 50 mm, 1.8-μm particle size, 80-Å pore size) using a linear 30–60% acetonitrile (B) gradient in deionized water (A) over 6 min at 25.0 ± 0.1 °C, at a flow rate of 0.5 mL/min and MS working in selected ion recording (SIR) mode (A—0.1% aqueous formic acid (FA) and B—0.1% FA in acetonitrile). The percentage of peptide remaining intact was calculated from peak areas of samples at t0 and after 6 h of incubation in serum (the % of remaining peptide = peak area after 6 h/peak area at t0). The mass-to-charge ratios selected for SIR mode were based on values obtained from full spectrum analysis of each peptide and are presented in Table 1.

[12] = test system: E. coli ATCC 25922; type: cell-based, Escherichia coli; conditions: ATCC 25922, 18 h
Experimental: as §1

[13] = test system: E. coli ATCC 25922 biofilm; type: cell-based, Escherichia coli; conditions: ATCC 25922, 24 h
Experimental: as §1

[14] = test system: E. coli ATCC 25922 biofilm formation; type: cell-based, Escherichia coli; conditions: ATCC 25922, 24 h
Experimental: as §1

[15] = test system: P. aeruginosa ATCC 9027 biofilm formation; type: cell-based, Pseudomonas aeruginosa; conditions: ATCC 9027, 24 h
Experimental: as §1

[16] = test system: P. aeruginosa ATCC 9027 biofilm; type: cell-based, Pseudomonas aeruginosa; conditions: ATCC 9027, 24 h
Experimental: as §1

[17] = test system: P. aeruginosa ATCC 9027; type: cell-based, Pseudomonas aeruginosa; conditions: ATCC 9027, 18 h
Experimental: as §1

| MIC, S. aureus ATCC 25923 [3] [µg/mL] | MIC, E. faecalis PCM 2673 [7] [µg/mL] | MIC, C. albicans ATCC 10231 [8] [µg/mL] | remaining at 6 h, 0.125 mg/mL [11] [%] | MIC, E. coli ATCC 25922 [12] [µg/mL] | Structure (SMILES) | Percentage of hemolysis at 1 μg/mL [1] [%] | Percentage of hemolysis at 2 μg/mL [1] [%] | Percentage of hemolysis at 4 μg/mL [1] [%] | Percentage of hemolysis at 8 μg/mL [1] [%] | Percentage of hemolysis at 16 μg/mL [1] [%] | Percentage of hemolysis at 32 μg/mL [1] [%] | Percentage of hemolysis at 64 μg/mL [1] [%] | Percentage of hemolysis at 128 μg/mL [1] [%] | Percentage of hemolysis at 256 μg/mL [1] [%] | MBEC, S. aureus ATCC 25923 [2] [µg/mL] | MBIC, S. aureus ATCC 25923 [4] [µg/mL] | MBEC, E. faecalis PCM 2673 [5] [µg/mL] | MBIC, E. faecalis PCM 2673 [6] [µg/mL] | MBEC, C. albicans ATCC 10231 [9] [µg/mL] | MBIC, C. albicans ATCC 10231 [10] [µg/mL] | further results |
| --- | --- | --- | --- | --- | --- | --- | --- | --- | --- | --- | --- | --- | --- | --- | --- | --- | --- | --- | --- | --- | --- |
| > 512 | 256 (≈ 178 µM) | 256 (≈ 178 µM) | 29 | 512 (≈ 356 µM) | CC[C@H](C)[C@H](NC(=O)[C@H](CCCCN)NC(=O)[C@H](CCCCN)NC(=O)[C@H](C)NC(=O)[C@@H](NC(=O)[C@H](CC(=O)O)NC(=O)[C@H](Cc1ccccc1)NC(=O)[C@H](CC(C)C)NC(=O)CN)[C@@H](C)CC)C(=O)N[C@@H](C)C(=O)N[C@@H](CCC(=O)O)C(=O)N[C@@H](CO)C(=O)N[C@@H](Cc1ccccc1)C(N)=O [Peptide I6A] (H-GLFDIAKKIAESF-NH2) | 0.4 | 0.6 | 0.5 | 0.3 | 0.1 | 0.0 | 0.1 | 0.1 | 0.1 | > 512 | > 512 | > 512 | > 512 | > 512 | 4 | MBEC, E. coli ATCC 25922 [13]: > 512 µg/mL; MBIC, E. coli ATCC 25922 [14]: 512 µg/mL; MBIC, P. aeruginosa ATCC 9027 [15]: > 512 µg/mL; MBEC, P. aeruginosa ATCC 9027 [16]: > 512 µg/mL; MIC, P. aeruginosa ATCC 9027 [17]: > 512 µg/mL |
| > 512 | 128 (≈ 89 µM) | 512 (≈ 356 µM) | 6 | 512 (≈ 356 µM) | CC[C@H](C)[C@H](NC(=O)[C@H](CC(=O)O)NC(=O)[C@H](Cc1ccccc1)NC(=O)[C@H](CC(C)C)NC(=O)CN)C(=O)N[C@H](C(=O)N[C@@H](CCCCN)C(=O)N[C@@H](CCCCN)C(=O)N[C@@H](C)C(=O)N[C@@H](C)C(=O)N[C@@H](CCC(=O)O)C(=O)N[C@@H](CO)C(=O)N[C@@H](Cc1ccccc1)C(N)=O)[C@@H](C)CC [Peptide I9A] (H-GLFDIIKKAAESF-NH2) | 0.6 | 0.6 | 0.3 | 0.1 | 0.0 | 0.0 | 0.0 | 0.0 | 0.0 | > 512 | > 512 | > 512 | > 512 | > 512 | 16 | MBEC, E. coli ATCC 25922 [13]: > 512 µg/mL; MBIC, E. coli ATCC 25922 [14]: >512 µg/mL; MBIC, P. aeruginosa ATCC 9027 [15]: > 512 µg/mL; MBEC, P. aeruginosa ATCC 9027 [16]: > 512 µg/mL; MIC, P. aeruginosa ATCC 9027 [17]: > 512 µg/mL |
